Test system: MDR1a−/− model of colitis
Experiment: MDR1a−/− model of colitis (chronic model of IBD)
Type: in vivo, mice
Experimental: MDR1a−/− model. Mice deficient in MDR1a spontaneously develop colitis. MDR1a−/− began receiving NX-13 treatment (oral, 20 mg/kg) at 4 weeks of age and continued treatment until 10 weeks of age. Mice were weighed and scored weekly. NX-13 was prepared within a 0.5% methylcellulose (12-15 cP) solution. Dosage used was 20 mg/kg delivered once daily. Mice were weighed on a weekly basis to update dosage formulation. Dosage was calculated based off mean body weights for each gender. Oral dosage was delivered by orogastric gavage of dosage in 0.2 mL volume. Colons were collected into RPMI/FBS buffer containing collagenase (300 U/mL) and DNase (50 U/mL) for digestion. Tissues were digested for 60 minutes under stirring at 37° C. Resultant cellular suspensions were filtered through 100 μm strainers, centrifuged (300× g, 8 min), and washed in fresh RPMI. Following filtration of the resulting single cell suspensions, immune cells were purified by Percoll gradient of cell-containing 40% Percoll overlayed onto 70% Percoll solution. After centrifugation, interphase was collected and washed to obtain enriched colonic lamina propria cell fractions. Cells were labeled with mixtures of extracellular (CD45, CD3, CD4, CD8, CD19, NK1.1, CD25, F4/80, CD11b, Gr1, CX3CR1, CD64) and intracellular (Tbet, RORγT, FOXP3, IFNγ, IL17, IL10) antibodies in a sequential live staining in 96-well plates. Data was acquired using a FACS Celesta flow cytometer with FACSDiva software. H&E stained colonic sections were prepared from portions of colons collected into 10% buffered formalin and embedded in paraffin. Slides were examined by a board-certified veterinary pathologist via an Olympus microscope and images were collected with Image-Pro software. Samples were scored (0-4) for leukocytic infiltration, epithelial erosion and mucosal thickening.

[1] = six weeks of treatment, flow cytometry

Cc1cccc(Oc2cc(Oc3cccc(C)n3)cc(Oc3cccc(C)n3)c2)n1 [NX-13, 1,3,5-tris (6-methylpyridin-2-yloxy) benzene]
development of leukocyte aggregates and thickening of the mucosa (after six weeks of treatment): protected against | overall leukocytic infiltration and epithelial erosion (after six weeks of treatment): reduced | maximal observed reduction of disease activity (oral 20 mg/kg once daily, week six of treatment): 70% | colonic pathology (oral, six weeks of treatment, H&E): greatly reduced | numbers of F4/80hi macrophages [1]: greatly reduced | numbers of IL-17 and IFNγ producing T cells [1]: greatly reduced | proportions of Th1 cells in the colonic lamina propria [1]: reduces | proportions of neutrophils in the colonic lamina propria [1]: reduces | proportions of regulatory CD4+ T (Treg) cells in the colon [1]: increased

— patent publication US10676436B2, “NLRX1 ligands” (Landos Biopharma, Inc., priority 2018, dated 2020)
